Measured values reported in PubChem BioAssay AID1918931 (Molecular Pharmacology Branch, DTP, NCI, 2023).

Tested on: 138582-337-R-J1-PDC complex spheroid viability
Experiment: Anticancer human tumor 138582-337-R-J1-PDC patient-derived Merkel cell tumor cell line growth inhibition
Settings: for IC50: curve of first compound; for viability, T/C: stronger effect = lower value; active = viability on the fitted dose curve at most 10% of control; inactive = the rest
Text: Multicellular complex tumor spheroid response to LSD1 Inhibitor Iadademstat in combination with a variety of drugs and investigational agents in selected tumor cell lines
The current study was undertaken to assess response to LSD1 inhibitors in combination with standard-of-care drugs and investigational agents in solid tumor complex spheroid models as well as in the K-562 leukemia. Complex spheroids include a stromal component modeled by human endothelial cells (HUVEC) and fibroblasts modeled by human mesenchymal stem cells (MSCs). The concentration ranges selected for each drug and investigational agent were based upon clinically achievable concentrations if the clinical Cmax of the agent was known.
Compounds. The drugs and investigational agents used in this study are listed on Table 1. All of the agents used, including staurosporine (NSC755774) and gemcitabine (NSC613327), were obtained from the Developmental Therapeutics Program, NCI. FDA-approved anticancer drugs are available from the NCI at http://dtp.nci.nih.gov/branches/dscb/oncology_drugset_explanation.html. Drugs and investigational agents were >95% pure by proton nuclear magnetic resonance (NMR) and liquid chromatography/mass spectrometry (LC/MS). Stock solutions were prepared at 400x in DMSO, stored at -70 degrees C, and diluted in fresh medium prior to their use. The final concentration of DMSO in cell culture wells never exceeded 0.25% (v/v). The FDA-approved anticancer drug set is available from the Developmental Therapeutics Program at https://dtp.cancer.gov/organization/dscb/obtaining/available_plates.htm. All drugs and investigational agents were tested over a range starting from a high concentration at or near the clinical Cmax and decreasing in half-log increments. If the clinical Cmax for an agent had not been determined, the highest concentration tested was 10 microM.
Cell Lines. The patient-derived cancer cell (PDC) lines: 292921-168-R-J2-PDC, K24384-001-R-PDC, and 521955-158-R2-J5-PDC pancreatic carcinomas, 556581-035-R-J1 ovarian carcinoma, 324938-238-R-J1-PDC, 855422-203-R-J1-PDC and 883617-216-R-J1-PDC urothelial bladder carcinomas, 743489-274-T-PDC renal cell carcinoma, 138582-R-J1 Merkel cell tumor, K60290-347-R-J1 and K57222-313-R-J1-PDC glioblastomas, 653999-131-R-J2-PDC, LG0703-F948-PDC, and 349418-098-R-PDC non-small cell lung carcinomas, 885512-296-R-J2-PDC, 171881-019-R-J1-PDC breast carcinomas and 186277-243-T-J2-PDC and 233499-124-R-J2-PDC colon carcinomas were obtained from the NCI Patient-Derived Models Repository (PDMR, https://pdmr.cancer.gov). The established cell lines NCI/ADR-RES (RRID:CVCL_14520 and OVCAR-5 (RRID:CVCL_1628) ovarian carcinomas, 786-O (RRID:CVCL_1051) and A498 (RRID:CVCL_A498) renal cell carcinoma, NCI-H211 (ATCC, cat. CRL-5824; RRID:CVCL_1529), NCI-H196 (ATCC, cat. CRL-5823, RRID:CVCL_1509), SW 1271 (ATCC, cat. CRL-2177, RRID:CVCL_1716) and NCI-H1876 (ATCC, cat. CRL-5902, RRID:CVCL_1503) small cell lung carcinomas, MDA-MB-231 (RRID:CVCL_0062) and MDA-MB-468 (RRID:CVCL_0419)breast carcinomas (10-12). Pooled donor human umbilical vein endothelial cells (HUVEC, Lonza, cat. CC-2519) and human mesenchymal stem cells (hMSC, Lonza, cat. PT-2501) were purchased from Lonza (Walkersville, MD).
Cell Culture. All cells were maintained in an incubator at 37 degrees C and 5% CO2 with 95% humidity. The PDC lines were cultured according to standard operating procedures established by the NCI PDMR (https://pdmr.cancer.gov). Briefly all PDCs were thawed and cultured in Matrigel-coated flasks prepared with a working solution of 1X Ham's F-12 nutrient mix, without supplementation (Invitrogen, Waltham, MA, cat. 11765054), 100 U/mL penicillin-streptomycin (Invitrogen, cat. 15140122), and 2.5% Matrigel (Corning Inc., Corning, NY, cat. 354248) for the first three passages. […]

[1] = second compound 0.1 µM, first compound 0.00316 µM
[2] = second compound 0.1 µM, first compound 0.01 µM
[3] = second compound 0.1 µM, first compound 0.0316 µM
[4] = second compound 0.1 µM, first compound 0.1 µM
[5] = second compound 0.316 µM, first compound 0.00316 µM
[6] = second compound 0.316 µM, first compound 0.01 µM
[7] = second compound 0.316 µM, first compound 0.0316 µM
[8] = second compound 0.316 µM, first compound 0.1 µM
[9] = second compound 1 µM, first compound 0.00316 µM
[10] = second compound 1 µM, first compound 0.01 µM
[11] = second compound 1 µM, first compound 0.0316 µM
[12] = second compound 1 µM, first compound 0.1 µM
[13] = second compound 3.16 µM, first compound 0.00316 µM
[14] = second compound 3.16 µM, first compound 0.01 µM
[15] = second compound 3.16 µM, first compound 0.0316 µM
[16] = second compound 3.16 µM, first compound 0.1 µM
[17] = second compound 10 µM, first compound 0.00316 µM
[18] = second compound 10 µM, first compound 0.01 µM
[19] = second compound 10 µM, first compound 0.0316 µM
[20] = second compound 10 µM, first compound 0.1 µM
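Also: spheroids exposed to agents for 7 days.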

CC[C@@]1(O)C(=O)OCc2c1cc1n(c2=O)Cc2cc3c(CN(C)C)c(O)ccc3nc2-1 + NC1CC1c1ccc(-c2cccc(O)c2)cc1
inactive: viability, T/C (second compound 0.1 µM, first compound 0.000316 µM) 70.6% | viability, T/C (second compound 0.1 µM, first compound 0.001 µM) 71.1% | viability, T/C [1] 63.5% | viability, T/C [2] 80% | viability, T/C [3] 68.5% | viability, T/C [4] 76.8% | viability, T/C (second compound 0.316 µM, first compound 0.000316 µM) 80.2% | viability, T/C (second compound 0.316 µM, first compound 0.001 µM) 70.7% | viability, T/C [5] 73.2% | viability, T/C [6] 68.5% | viability, T/C [7] 66.6% | viability, T/C [8] 75.9% | viability, T/C (second compound 1 µM, first compound 0.000316 µM) 70.8% | viability, T/C (second compound 1 µM, first compound 0.001 µM) 70.7% | viability, T/C [9] 80.2% | viability, T/C [10] 71.1% | viability, T/C [11] 61.3% | viability, T/C [12] 74.3% | viability, T/C (second compound 3.16 µM, first compound 0.000316 µM) 75.6% | viability, T/C (second compound 3.16 µM, first compound 0.001 µM) 74.8% | viability, T/C [13] 85.6% | viability, T/C [14] 81.8% | viability, T/C [15] 66.4% | viability, T/C [16] 66.4% | viability, T/C (second compound 10 µM, first compound 0.000316 µM) 82.8% | viability, T/C (second compound 10 µM, first compound 0.001 µM) 81.2% | viability, T/C [17] 100% | viability, T/C [18] 90.3% | viability, T/C [19] 77.3% | viability, T/C [20] 67.8%
> 0.1 µM: IC50 (second compound 0.1 µM) | IC50 (second compound 0.316 µM) | IC50 (second compound 1 µM) | IC50 (second compound 3.16 µM) | IC50 (second compound 10 µM)

COc1cc(C2c3cc4c(cc3C(OC3OC5COC(C)OC5C(O)C3O)C3COC(=O)C23)OCO4)cc(OC)c1O (stereo not given) + NC1CC1c1ccc(-c2cccc(O)c2)cc1
inactive: viability, T/C (second compound 0.1 µM, first compound 0.00949 µM) 60.8% | viability, T/C (second compound 0.1 µM, first compound 0.03 µM) 72.3% | viability, T/C (second compound 0.1 µM, first compound 0.0949 µM) 63% | viability, T/C (second compound 0.1 µM, first compound 0.3 µM) 48.5% | viability, T/C (second compound 0.1 µM, first compound 0.949 µM) 52.9% | viability, T/C (second compound 0.1 µM, first compound 3 µM) 36.7% | viability, T/C (second compound 0.316 µM, first compound 0.00949 µM) 67.1% | viability, T/C (second compound 0.316 µM, first compound 0.03 µM) 69.8% | viability, T/C (second compound 0.316 µM, first compound 0.0949 µM) 63.1% | viability, T/C (second compound 0.316 µM, first compound 0.3 µM) 51.1% | viability, T/C (second compound 0.316 µM, first compound 0.949 µM) 52.3% | viability, T/C (second compound 0.316 µM, first compound 3 µM) 29.9% | viability, T/C (second compound 1 µM, first compound 0.00949 µM) 76.8% | viability, T/C (second compound 1 µM, first compound 0.03 µM) 75.9% | viability, T/C (second compound 1 µM, first compound 0.0949 µM) 60.6% | viability, T/C (second compound 1 µM, first compound 0.3 µM) 53.2% | viability, T/C (second compound 1 µM, first compound 0.949 µM) 45% | viability, T/C (second compound 1 µM, first compound 3 µM) 40.7% | viability, T/C (second compound 3.16 µM, first compound 0.00949 µM) 69.7% | viability, T/C (second compound 3.16 µM, first compound 0.03 µM) 75.9% | viability, T/C (second compound 3.16 µM, first compound 0.0949 µM) 65.9% | viability, T/C (second compound 3.16 µM, first compound 0.3 µM) 51.8% | viability, T/C (second compound 3.16 µM, first compound 0.949 µM) 53.1% | viability, T/C (second compound 3.16 µM, first compound 3 µM) 31.6% | viability, T/C (second compound 10 µM, first compound 0.00949 µM) 71.2% | viability, T/C (second compound 10 µM, first compound 0.03 µM) 77.3% | viability, T/C (second compound 10 µM, first compound 0.0949 µM) 58.4% | viability, T/C (second compound 10 µM, first compound 0.3 µM) 50.1% | viability, T/C (second compound 10 µM, first compound 0.949 µM) 41.4% | viability, T/C (second compound 10 µM, first compound 3 µM) 37%
0.767 µM: IC50 (second compound 3.16 µM)
0.559 µM: IC50 (second compound 1 µM)
0.69 µM: IC50 (second compound 0.316 µM)
0.762 µM: IC50 (second compound 0.1 µM)
0.265 µM: IC50 (second compound 10 µM)

Nc1ncn(C2CC(O)C(CO)O2)c(=O)n1 (stereo not given) + NC1CC1c1ccc(-c2cccc(O)c2)cc1
inactive: viability, T/C [1] 74% | viability, T/C [2] 92% | viability, T/C [3] 94.5% | viability, T/C [4] 85.7% | viability, T/C (second compound 0.1 µM, first compound 0.316 µM) 77.8% | viability, T/C (second compound 0.1 µM, first compound 1 µM) 75.3% | viability, T/C [5] 82.3% | viability, T/C [6] 98.7% | viability, T/C [7] 108% | viability, T/C [8] 85.7% | viability, T/C (second compound 0.316 µM, first compound 0.316 µM) 85.3% | viability, T/C (second compound 0.316 µM, first compound 1 µM) 76.6% | viability, T/C [9] 75.8% | viability, T/C [10] 109% | viability, T/C [11] 98.1% | viability, T/C [12] 88.5% | viability, T/C (second compound 1 µM, first compound 0.316 µM) 83% | viability, T/C (second compound 1 µM, first compound 1 µM) 84.9% | viability, T/C [13] 67.7% | viability, T/C [14] 119% | viability, T/C [15] 113% | viability, T/C [16] 89.6% | viability, T/C (second compound 3.16 µM, first compound 0.316 µM) 87.8% | viability, T/C (second compound 3.16 µM, first compound 1 µM) 80.1% | viability, T/C [17] 85.8% | viability, T/C [18] 99.2% | viability, T/C [19] 118% | viability, T/C [20] 106% | viability, T/C (second compound 10 µM, first compound 0.316 µM) 113% | viability, T/C (second compound 10 µM, first compound 1 µM) 88.4%
> 1 µM: IC50 (second compound 0.1 µM) | IC50 (second compound 0.316 µM) | IC50 (second compound 1 µM) | IC50 (second compound 3.16 µM) | IC50 (second compound 10 µM)
